In US6872721B2, “Derivatives of 2,3,6,7,12,12a-hexahydropyrazino-[1′,2′:1,6]pyrido[3,4b]-indole-1,4-dione” (Lilly ICOS LLC, priority 2000, dated 2005):

What was measured:
[1] = target: human recombinant-PDE5 (Homo sapiens, UniProt O76074); assay: Inhibitory effect on cGMP-PDE (PDE5 IC50, one-step assay); assay type: biochemical; conditions: in vitro, 0.15 μM 8-[H3]-cGMP, 30 min incubation
Experimental: The compounds of structural formula (I) were tested for an ability to inhibit PDE5. The ability of a compound to inhibit PDE5 activity is related to the IC50 value for the compound, i.e., the concentration of inhibitor required for 50% inhibition of enzyme activity. The IC50 value for compounds of structural formula (I) were determined using recombinant human PDE5.
cGMP-PDE activity of compounds of the present invention was measured using a one-step assay adapted from Wells et al., Biochim. Biophys. Acta, 384, 430 (1975). The reaction medium contained 50 mM Tris-HCl, pH 7.5, 5 mM magnesium acetate, 250 μg/ml 5′-Nucleotidase, 1 mM EGTA, and 0.15 μM 8-[H^3]-cGMP. Unless otherwise indicated, the enzyme used was a human recombinant-PDE5 (ICOS Corp., Bothell, Wash.).
Compounds of the invention were dissolved in DMSO finally present at 2% in the assay.

| Compound | IC50 [1] | melting point |
| --- | --- | --- |
| CN1CC(=O)N2[C@H](c3ccc4c(c3)OCO4)c3[nH]c4ccc(O)cc4c3C[C@@H]2C1=O (racemic) [Example 1, (+/−, cis)-6-Benzo[1,3]dioxol-5-yl-10-hydroxy-2-methyl-2,3,6,7,12,12a-hexahydropyrazino[1′,2′:1,6)pyrido[3,4-b]indole-1,4-dione] | 48.1 nM | 322 to 328 °C |
| COc1ccc2[nH]c3c(c2c1)C[C@@H]1C(=O)N(C)CC(=O)N1[C@@H]3c1ccc2c(c1)OCO2 (racemic) [Example 2, (trans)-6-(1,3-Benzodioxol-5-yl)-10-methoxy-2-methyl-2,3,6,7,12,12a-hexahydropyrazino[1′,2′:1,6]pyrido[3,4-b]indole-1,4-dione] | 402 nM | 259 to 261 °C |
| CN1CC(=O)N2[C@H](c3ccc4c(c3)OCO4)c3[nH]c4cc(-c5ccccc5)ccc4c3C[C@@H]2C1=O (racemic) [Example 4, (+−, cis)-6-Benzo[1,3]dioxol-5-yl-2-methyl-9-phenyl-2,3,6,7,12,12a-hexahydropyrazino[1′,2′:1,6]pyrido[3,4-b]indole-1,4-dione] | 6 nM | 198 to 208 °C |
| COC(=O)c1ccc2c3c([nH]c2c1)[C@@H](c1ccc2c(c1)OCO2)N1C(=O)CN(C)C(=O)[C@H]1C3 (racemic) [Example 5, (+−, cis)-6-Benzo[1,3]dioxol-5-yl-2-methyl-1,4-dioxo-1,2,3,6,7,12,12a-octahydropyrazino[1′,2′:1,6]pyrido[3,4-b]indole-9-carboxylic acid methyl ester] | 288 nM | 294 to 295 °C |
| CN1CC(=O)N2[C@H](c3ccc4c(c3)OCO4)c3[nH]c4c(OCc5ccccc5)cccc4c3C[C@@H]2C1=O (racemic) [Example 8, (+−, cis)-6-Benzo[1,3]dioxol-5-yl-8-benzyloxy-2-methyl-2,3,6,7,12,12a-hexahydropyrazino[1′2′:1,6]pyrido[3,4-b]indole-1,4-dione] | 37 nM | 150 to 161 °C |

Second part, the compound after the results:

| IC50 [1] | melting point | Compound |
| --- | --- | --- |
| 151 nM | 246 to 252 °C | CN1CC(=O)N2[C@H](c3ccc4c(c3)OCO4)c3[nH]c4cc(C(=O)O)ccc4c3C[C@H]2C1=O (racemic) [Example 6, (+−,trans)-6-Benzo[1,3]dioxol-5-yl-2-methyl-1,4-dioxo-1,2,3,4,6,7,12,12a-octahydropyrazino[1′,2′:1,6]pyrido[3,4-b]indole-9-carobxylic acid] |
| 7 nM | 329 to 331 °C | CN1CC(=O)N2[C@H](c3ccc4c(c3)OCO4)c3[nH]c4cc(C#N)ccc4c3C[C@@H]2C1=O (racemic) [Example 7, (+−, cis)-6-Benzo[1,3]dioxol-5-yl-2-methyl-1,4-dioxo-1,2,3,4,6,7,12,12a-octahydropyrazino[1′,2′:1,6]pyrido[3,4-b]indole-9-carbonitrile] |
| 1.2 nM | 288 to 293 °C | COc1ccc2c3c([nH]c2c1)[C@@H](c1ccc2c(c1)OCO2)N1C(=O)CN(C)C(=O)[C@H]1C3 [Example 3, (6R,12aR)-6-Benzo[1,3]dioxol-5-yl-9-methoxy-2-methyl-2,3,6,7,12,12a-hexahydropyrazino-[1′,2′:1,6]pyrido[3,4-b]indole-1,4-dione] |
